Source: paper PMC3382171 (PLoS ONE, 2012)

Tests used:
Assay in all cases: biochemical
Details in all cases: read-out: Upstate KSS % inhibition at 1uM
MEK1 = target: T1, MEK1 (Homo sapiens, UniProt Q02750)
T1 construct: gene MAP2K1
Description: (§1) In these selectivity assays the concentration of ATP was set to the Km value of ATP for each kinase tested to allow for a relative potency comparison between the various kinases. The compounds were tested at 1 µM final concentration. […] (A) Kinase selectivity screen (KSS) performed at Upstate Biotechnology. […] (B) KSS performed at University of Dundee (Division of Signal Transduction Therapy). […] (PDF) Click here for additional data file.

Pyk2 = target: T2, Pyk2 (Homo sapiens, UniProt Q14289)
T2 construct: gene PTK2B
Description: as §1

CAMKIIbeta = target: T3, CAMKIIbeta (Homo sapiens, UniProt Q13554)
T3 construct: gene CAMK2B
Description: as §1

PKCmu = target: T4, PKCmu (Homo sapiens, UniProt Q15139)
T4 construct: gene PRKD1
Description: as §1

GSK3alpha = target: T5, GSK3alpha (Homo sapiens, UniProt P49840)
T5 construct: gene GSK3A
Description: as §1

MKK7beta = target: T6, MKK7beta (Homo sapiens, UniProt O14733)
T6 construct: gene MAP2K7; isoform beta
Description: as §1

PASK = PASK (Homo sapiens, UniProt Q96RG2)
Description: as §1

KDR = KDR (Homo sapiens, UniProt P35968)
Description: as §1

MSK1 = target: T7, MSK1 (Homo sapiens, UniProt O75582)
T7 construct: gene RPS6KA5
Description: as §1

RET = RET (Homo sapiens, UniProt P07949)
Description: as §1

JNK1alpha1 = target: T8, JNK1alpha1 (Homo sapiens, UniProt P45983)
T8 construct: gene MAPK8; isoform alpha1
Description: as §1

Snk = target: T9, Snk (Homo sapiens, UniProt Q9NYY3)
T9 construct: gene PLK2
Description: as §1

BTK = BTK (Homo sapiens, UniProt Q06187)
Description: as §1

LKB1 = target: T10, LKB1 (Homo sapiens, UniProt Q15831)
T10 construct: gene STK11
Description: as §1

FGR = FGR (Homo sapiens, UniProt P09769)
Description: as §1

PAK2 = PAK2 (Homo sapiens, UniProt Q13177)
Description: as §1

TAK1 = target: T11, TAK1 (Homo sapiens, UniProt O43318)
T11 construct: gene MAP3K7
Description: as §1

PLK3 = PLK3 (Homo sapiens, UniProt Q9H4B4)
Description: as §1

CDK7/cyclinH = CDK7/cyclinH (Homo sapiens, UniProt P50613)
Description: as §1

EPHB2 = EPHB2 (Homo sapiens, UniProt P29323)
Description: as §1

PKCdelta = target: T12, PKCdelta (Homo sapiens, UniProt Q05655)
T12 construct: gene PRKCD
Description: as §1

JAK2 = JAK2 (Homo sapiens, UniProt O60674)
Description: as §1

MRCKalpha = target: T13, MRCKalpha (Homo sapiens, UniProt Q5VT25)
T13 construct: gene CDC42BPA
Description: as §1

PKCbeta = target: T14, PKCbeta (Homo sapiens, UniProt P05771)
T14 construct: gene PRKCB
Description: as §1

LCK = LCK (Homo sapiens, UniProt P06239)
Description: as §1

PKBbeta = target: T15, PKBbeta (Homo sapiens, UniProt P31751)
T15 construct: gene AKT2
Description: as §1

NEK6 = NEK6 (Homo sapiens, UniProt Q9HC98)
Description: as §1

ZIPK = target: T16, ZIPK (Homo sapiens, UniProt O43293)
T16 construct: gene DAPK3
Description: as §1

GRK3 = GRK3 (Homo sapiens, UniProt P35626)
Description: as §1

FGFR3 = FGFR3 (Homo sapiens, UniProt P22607)
Description: as §1

rat CK1delta = target: T17, rat CK1delta (Rattus norvegicus, UniProt Q06486)
T17 construct: gene Csnk1d
Description: as §1

RIPK2 = RIPK2 (Homo sapiens, UniProt O43353)
Description: as §1

SAPK3 = target: T18, SAPK3 (Homo sapiens, UniProt P53778)
T18 construct: gene MAPK12
Description: as §1

TrkB = target: T19, TrkB (Homo sapiens, UniProt Q16620)
T19 construct: gene NTRK2
Description: as §1

Sequence of FGR (P09769 whole entry): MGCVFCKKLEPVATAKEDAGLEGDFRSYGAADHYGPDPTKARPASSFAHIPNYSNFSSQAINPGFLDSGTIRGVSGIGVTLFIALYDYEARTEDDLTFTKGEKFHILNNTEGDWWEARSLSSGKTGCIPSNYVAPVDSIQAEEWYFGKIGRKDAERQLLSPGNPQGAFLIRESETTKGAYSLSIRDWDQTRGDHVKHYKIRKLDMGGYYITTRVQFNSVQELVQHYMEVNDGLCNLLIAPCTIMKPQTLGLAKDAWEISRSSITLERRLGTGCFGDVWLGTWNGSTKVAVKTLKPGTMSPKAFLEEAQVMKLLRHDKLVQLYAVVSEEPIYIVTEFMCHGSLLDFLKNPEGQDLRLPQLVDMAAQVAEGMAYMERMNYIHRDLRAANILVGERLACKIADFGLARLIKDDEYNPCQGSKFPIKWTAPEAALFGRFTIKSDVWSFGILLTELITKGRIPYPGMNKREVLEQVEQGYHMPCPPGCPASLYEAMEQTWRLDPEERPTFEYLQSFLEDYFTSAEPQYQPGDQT
T15 sequence (P31751 whole entry): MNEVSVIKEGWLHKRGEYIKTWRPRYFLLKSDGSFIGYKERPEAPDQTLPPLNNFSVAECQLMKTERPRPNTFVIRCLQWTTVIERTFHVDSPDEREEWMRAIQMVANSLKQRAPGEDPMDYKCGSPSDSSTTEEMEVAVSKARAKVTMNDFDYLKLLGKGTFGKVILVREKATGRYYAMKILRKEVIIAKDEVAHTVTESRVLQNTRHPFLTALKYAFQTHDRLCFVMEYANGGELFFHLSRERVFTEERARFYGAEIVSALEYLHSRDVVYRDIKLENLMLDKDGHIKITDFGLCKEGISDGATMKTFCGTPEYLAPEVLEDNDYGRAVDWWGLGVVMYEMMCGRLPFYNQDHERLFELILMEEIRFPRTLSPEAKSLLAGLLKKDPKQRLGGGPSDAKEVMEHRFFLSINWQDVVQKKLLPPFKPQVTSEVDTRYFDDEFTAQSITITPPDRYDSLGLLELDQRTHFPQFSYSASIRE
T8 sequence (P45983 whole entry, canonical isoform): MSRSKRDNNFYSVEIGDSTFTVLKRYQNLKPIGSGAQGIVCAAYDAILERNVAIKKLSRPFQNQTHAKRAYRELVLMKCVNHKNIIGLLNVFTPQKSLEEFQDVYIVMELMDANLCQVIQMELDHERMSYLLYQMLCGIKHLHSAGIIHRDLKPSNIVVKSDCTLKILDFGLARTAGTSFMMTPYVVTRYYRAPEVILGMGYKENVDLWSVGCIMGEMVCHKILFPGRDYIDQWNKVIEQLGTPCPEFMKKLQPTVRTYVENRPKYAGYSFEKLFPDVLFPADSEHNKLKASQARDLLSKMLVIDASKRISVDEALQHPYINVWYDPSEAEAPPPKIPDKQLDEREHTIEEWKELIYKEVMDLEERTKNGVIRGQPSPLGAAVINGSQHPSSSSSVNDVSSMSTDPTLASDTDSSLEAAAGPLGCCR
T13 sequence (Q5VT25 whole entry): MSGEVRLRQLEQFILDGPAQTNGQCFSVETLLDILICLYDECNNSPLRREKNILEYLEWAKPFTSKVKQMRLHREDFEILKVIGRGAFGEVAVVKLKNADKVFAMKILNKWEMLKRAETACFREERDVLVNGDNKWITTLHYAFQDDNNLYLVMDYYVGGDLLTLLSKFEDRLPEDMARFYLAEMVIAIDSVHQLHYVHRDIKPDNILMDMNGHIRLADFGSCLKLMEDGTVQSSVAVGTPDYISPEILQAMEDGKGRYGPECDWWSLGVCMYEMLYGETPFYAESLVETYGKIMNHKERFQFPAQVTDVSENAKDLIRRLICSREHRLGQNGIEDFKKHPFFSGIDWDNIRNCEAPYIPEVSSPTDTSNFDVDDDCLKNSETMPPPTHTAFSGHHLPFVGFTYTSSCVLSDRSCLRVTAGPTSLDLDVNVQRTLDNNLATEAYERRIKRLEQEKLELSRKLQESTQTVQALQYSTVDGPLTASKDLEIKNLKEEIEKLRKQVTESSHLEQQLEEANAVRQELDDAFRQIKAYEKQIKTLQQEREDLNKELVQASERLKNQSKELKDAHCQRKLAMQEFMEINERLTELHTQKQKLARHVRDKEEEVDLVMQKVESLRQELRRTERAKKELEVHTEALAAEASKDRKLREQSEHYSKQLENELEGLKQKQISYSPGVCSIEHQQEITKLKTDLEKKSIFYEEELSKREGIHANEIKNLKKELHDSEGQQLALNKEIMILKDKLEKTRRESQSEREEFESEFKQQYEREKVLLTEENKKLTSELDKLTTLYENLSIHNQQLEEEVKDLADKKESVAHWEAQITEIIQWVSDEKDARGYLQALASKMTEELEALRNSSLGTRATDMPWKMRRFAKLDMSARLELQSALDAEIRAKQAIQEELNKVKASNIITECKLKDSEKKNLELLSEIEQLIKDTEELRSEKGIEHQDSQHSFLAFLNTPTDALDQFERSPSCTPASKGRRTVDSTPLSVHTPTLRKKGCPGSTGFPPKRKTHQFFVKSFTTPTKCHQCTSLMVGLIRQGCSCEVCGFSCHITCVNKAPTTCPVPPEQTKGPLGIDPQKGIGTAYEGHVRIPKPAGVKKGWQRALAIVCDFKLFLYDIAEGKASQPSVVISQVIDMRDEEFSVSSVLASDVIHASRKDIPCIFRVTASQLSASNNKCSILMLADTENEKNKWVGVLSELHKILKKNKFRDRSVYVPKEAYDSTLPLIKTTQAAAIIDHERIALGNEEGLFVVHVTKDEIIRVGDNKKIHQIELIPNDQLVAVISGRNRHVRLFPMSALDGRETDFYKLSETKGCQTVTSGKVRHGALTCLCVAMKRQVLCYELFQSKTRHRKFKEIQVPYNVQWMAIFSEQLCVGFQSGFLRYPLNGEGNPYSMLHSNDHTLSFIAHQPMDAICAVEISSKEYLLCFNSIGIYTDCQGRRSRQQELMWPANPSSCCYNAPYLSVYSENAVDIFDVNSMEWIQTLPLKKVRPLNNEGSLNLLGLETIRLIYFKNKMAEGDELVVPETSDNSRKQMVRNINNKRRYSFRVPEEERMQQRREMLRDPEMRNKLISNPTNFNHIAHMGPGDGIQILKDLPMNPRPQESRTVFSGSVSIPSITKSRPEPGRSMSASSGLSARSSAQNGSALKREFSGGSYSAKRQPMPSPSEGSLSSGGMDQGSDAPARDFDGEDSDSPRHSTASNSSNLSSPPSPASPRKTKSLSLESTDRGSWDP
Sequence of PAK2 (Q13177 whole entry): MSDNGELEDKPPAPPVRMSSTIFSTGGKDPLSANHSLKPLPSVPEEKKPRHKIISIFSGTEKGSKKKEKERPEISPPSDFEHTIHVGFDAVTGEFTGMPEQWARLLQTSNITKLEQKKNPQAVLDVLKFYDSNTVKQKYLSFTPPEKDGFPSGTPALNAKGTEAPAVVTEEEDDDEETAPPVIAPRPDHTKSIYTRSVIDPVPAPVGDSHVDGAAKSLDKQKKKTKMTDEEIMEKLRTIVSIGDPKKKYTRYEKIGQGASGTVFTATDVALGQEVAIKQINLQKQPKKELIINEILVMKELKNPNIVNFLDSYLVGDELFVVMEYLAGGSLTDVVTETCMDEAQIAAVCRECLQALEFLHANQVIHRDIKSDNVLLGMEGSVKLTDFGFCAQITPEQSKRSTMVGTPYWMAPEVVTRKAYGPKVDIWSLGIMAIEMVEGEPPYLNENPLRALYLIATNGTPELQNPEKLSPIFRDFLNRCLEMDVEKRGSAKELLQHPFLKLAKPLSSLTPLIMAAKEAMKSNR
Sequence of RET (P07949 whole entry): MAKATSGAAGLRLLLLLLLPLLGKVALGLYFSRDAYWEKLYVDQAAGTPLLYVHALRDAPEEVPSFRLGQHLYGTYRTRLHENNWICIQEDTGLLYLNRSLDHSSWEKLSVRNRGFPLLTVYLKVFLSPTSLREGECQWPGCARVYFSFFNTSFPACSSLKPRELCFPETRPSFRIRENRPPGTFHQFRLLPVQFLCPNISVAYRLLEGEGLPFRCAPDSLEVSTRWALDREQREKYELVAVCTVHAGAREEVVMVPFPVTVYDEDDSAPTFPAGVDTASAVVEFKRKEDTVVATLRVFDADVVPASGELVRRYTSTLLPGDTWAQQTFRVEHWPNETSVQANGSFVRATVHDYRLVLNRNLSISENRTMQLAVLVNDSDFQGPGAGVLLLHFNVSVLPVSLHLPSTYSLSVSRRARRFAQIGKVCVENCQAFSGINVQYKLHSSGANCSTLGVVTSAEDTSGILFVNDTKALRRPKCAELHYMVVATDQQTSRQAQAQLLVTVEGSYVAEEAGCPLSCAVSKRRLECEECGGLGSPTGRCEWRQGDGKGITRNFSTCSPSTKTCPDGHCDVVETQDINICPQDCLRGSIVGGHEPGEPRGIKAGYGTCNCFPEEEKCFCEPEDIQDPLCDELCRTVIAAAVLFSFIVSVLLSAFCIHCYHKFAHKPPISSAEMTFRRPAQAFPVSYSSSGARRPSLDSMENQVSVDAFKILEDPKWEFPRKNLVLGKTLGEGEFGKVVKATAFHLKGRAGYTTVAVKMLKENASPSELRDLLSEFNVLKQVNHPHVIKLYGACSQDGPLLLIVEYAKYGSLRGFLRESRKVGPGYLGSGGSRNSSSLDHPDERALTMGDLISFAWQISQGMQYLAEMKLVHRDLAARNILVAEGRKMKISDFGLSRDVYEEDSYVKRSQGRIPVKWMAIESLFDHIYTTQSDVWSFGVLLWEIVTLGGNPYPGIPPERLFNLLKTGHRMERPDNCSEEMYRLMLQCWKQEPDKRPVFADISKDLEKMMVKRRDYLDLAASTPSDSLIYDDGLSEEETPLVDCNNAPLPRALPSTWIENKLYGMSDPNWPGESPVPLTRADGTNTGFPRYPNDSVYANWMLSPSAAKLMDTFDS

SMILES: OCCn1cc(-c2cnc3nnn(Cc4ccc5ncccc5c4)c3n2)cn1 [METi, PF-04217903]
- inhibition at 1 µM (MEK1): -11%
- inhibition at 1 µM (Pyk2): -17%
- inhibition at 1 µM (CAMKIIbeta): -6%
- inhibition at 1 µM (PKCmu): 5%
- inhibition at 1 µM (GSK3alpha): -7%
- inhibition at 1 µM (MKK7beta): -2%
- inhibition at 1 µM (PASK): -13%
- inhibition at 1 µM (KDR): -9%
- inhibition at 1 µM (MSK1): -5%
- inhibition at 1 µM (RET): -7%
- inhibition at 1 µM (JNK1alpha1): 0%
- inhibition at 1 µM (Snk): -11%
- inhibition at 1 µM (BTK): -13%
- inhibition at 1 µM (LKB1): -10%
- inhibition at 1 µM (FGR): 0%
- inhibition at 1 µM (PAK2): -9%
- inhibition at 1 µM (TAK1): -7%
- inhibition at 1 µM (PLK3): -7%
- inhibition at 1 µM (CDK7/cyclinH): -14%
- inhibition at 1 µM (EPHB2): 53%
- inhibition at 1 µM (PKCdelta): 10%
- inhibition at 1 µM (JAK2): -6%
- inhibition at 1 µM (MRCKalpha): 5%
- inhibition at 1 µM (PKCbeta): 0%
- inhibition at 1 µM (LCK): -8%
- inhibition at 1 µM (PKBbeta): -6%
- inhibition at 1 µM (NEK6): -14%
- inhibition at 1 µM (ZIPK): 0%
- inhibition at 1 µM (GRK3): -1%
- inhibition at 1 µM (FGFR3): -1%
- inhibition at 1 µM (rat CK1delta): -4%
- inhibition at 1 µM (RIPK2): 3%
- inhibition at 1 µM (SAPK3): 10%
- inhibition at 1 µM (TrkB): 10%
